# Measurements taken from patent US4308396A, “Thromboxane A2 analogues” (priority 1979, dated 1981).
# Where two headings read alike, the source gives them in different places.
# Columns and labels:
# human platelets [1] = experiment: Platelet aggregation in citrated human platelet-rich plasma; format: cell-based
# Description: (§1) Platelet aggregation was studied in an aggregometer (Chronolog Corp., Phila., PA) using 0.5 ml citrated human platelet-rich plasma at 35° C. One minute after addition of analogue (up to 2 μl of a 25 mM solution in ethanol) aggregation was initiated by addition of sodium arachidonate (0.3-0.5 mM), ADP (2 μM) collagen (1 μg/ml), epinephrine (50 μM), 9,11-azo-PGH2, (0.1-0.6 μM), 9,11-methanoepoxy-PGH2, (0.3-0.6 μM), or 9,11-epoxy methano-PGH2 (1-3 μM). The analogues were also tested for their effects on the inhibition of ADP-induced aggregation by 2 nM prostacyclin or 20 nM prostaglandin D2.
# human platelets [2] = experiment: Effect on the inhibition of ADP-induced platelet aggregation by prostacyclin or prostaglandin D2; format: cell-based
# Description: as §1
# thromboxane synthetase [3] = molecular target: T1, thromboxane synthetase (Oryctolagus cuniculus, UniProt G1TAZ9); experiment: Thromboxane synthesis from 1-14C-arachidonic acid by washed rabbit platelets; format: cell-based
# T1 sequence (G1TAZ9 1-530): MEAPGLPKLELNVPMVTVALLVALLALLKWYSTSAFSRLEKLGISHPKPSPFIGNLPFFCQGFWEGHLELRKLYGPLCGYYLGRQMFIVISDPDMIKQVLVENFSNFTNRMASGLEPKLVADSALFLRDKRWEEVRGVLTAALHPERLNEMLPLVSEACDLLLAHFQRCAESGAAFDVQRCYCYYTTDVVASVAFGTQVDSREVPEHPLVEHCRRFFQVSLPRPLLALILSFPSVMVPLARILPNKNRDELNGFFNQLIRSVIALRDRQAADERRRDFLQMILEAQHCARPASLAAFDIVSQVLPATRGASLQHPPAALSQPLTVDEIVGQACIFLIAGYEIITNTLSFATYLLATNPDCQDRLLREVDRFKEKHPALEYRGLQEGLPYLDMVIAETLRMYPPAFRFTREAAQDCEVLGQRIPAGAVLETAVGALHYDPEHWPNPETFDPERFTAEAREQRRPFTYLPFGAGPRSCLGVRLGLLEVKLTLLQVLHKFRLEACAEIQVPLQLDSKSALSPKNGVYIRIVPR
# Description: (§2) To study the effects of analogues on thromboxane synthesis, rabbit platelets were washed free of plasma, resuspended in buffered saline solution and incubated at 37° C. for 5 minutes with analogues at either 10 μM or 100 μM. Radioactive 1-^14 C-arachidonic acid (0.5 μCi, SA 50 Ci/mol, New England Nuclear, Boston, Mass.) was added and incubation was continued for 15 minutes, lipids were extracted by the method of Folch, J. Biol. Chem. 226, 497 (1957), and subjected to thin layer chromatography. In additional experiments, human platelet-rich plasma was incubated at 37° C. in the aggregometer for 1 minute with analogues. Sodium arachidonate (0.4 mM) was added and incubation was continued for 5 minutes. The samples were decanted into one-tenth vol. 100 mM EDTA, centrifuged for 2 minutes at 15,000 g, and thromboxane B2 in the supernatant was determined by radioimmunoassay.
# cyclooxygenase = experiment: Effect on cyclooxygenase, washed rabbit platelets; format: cell-based; settings: inferred from prostaglandin increases
# Description: as §2
# Prostacyclin Synthetase = experiment: Prostacyclin synthetase, sheep vesicular glands, 1-14C-arachidonic acid as substrate; format: biochemical; settings: 100 μM; Table 1
# Description: The effects of analogues on prostacyclin synthetase were determined using sheep vesicular glands as the enzyme source and 1-^14 C-arachidonic acid as substrate essentially as described by Cottee, F. et al, in Prostaglandins, 14, 413 (1978).
# thromboxane synthetase [4] = experiment: Thromboxane B2 formation in human platelet-rich plasma (radioimmunoassay); format: cell-based; settings: 50 μM
# Description: as §2
# cat coronary arteries = experiment: Cat coronary artery constriction (perfused right coronary artery, constriction induced by endoperoxide analogues); format: cell-based; settings: for inhibition at 0.1 µM: analogue 100 nM
# Description: Thromboxane A2 analogues (up to 4 μl of a 2.5 mM solution in ethanol) were tested for their effects on cat coronary arteries continuously prefused with 10 ml Krebs-Henseleit solution as described below.
# Cats of either sex (2.5-3.5 kg) were anesthetized with sodium pentobarbital (30 mg/kg) given intravenously. Hearts were reapidly excised and placed in oxygenated (95% O2 +5% CO2) ice-cold Krebs-Henseleit (K-H) solution of the following millimolar composition: NaCl, 118; KCl, 4.75; CaCl2.H2 O, 2.54; KH2 PO4, 1.19; MgSO4.7H2 O, 1.19; NaHCO3, 12.5; glucose, 10.00. A 20-gauge stainless steel cannula was inserted into the right coronary artery via the coronary ostium. Distal to the cannula, approximately 1 cm of coronary artery was dissected free of surrounding tissue. The section of right coronary artery with the cannula in place was excised from the heart and immediately transferred to a constant flow perfusion apparatus.
# (§3) The perfusion apparatus consists of a reservoir containing 20 ml of warm (37° C.) oxygenated (95% O2 +5% CO2) K-H solution which bathes the coronary artery and serves as recirculating perfusate. An increase in perfusion pressure indicates vasoconstriction, whereas a decrease in perfusion pressure signifies vasodilation. Following an initial 1 hr. equilibrium period, vascular responsiveness was established by adding 25 mM KCl. After washing with fresh K-H solution for 20-30 minutes, the preparation achieved a relatively constant low basal tone. Basal perfusion pressure averaged 50±2.5 mm Hg. Fresh K-H dilutions of stock thromboxane analog concentrations were added to the perfusate reservoir in 0.1-0.2 ml volumes. Changes in perfusion pressure in response to thromboxane analogue addition generally plateaus within 5 minutes of administration. Constriction of the arteries was induced by addition of 15 or 30 nM 9,11-azo-prostaglandinendoperoxide (azo-PGH2), or 1 μM 9,11-methanoepoxy-PGH2. These compounds and their effects are described in the following references: Corey et al, PNAS, U.S.A. 72, 3355 (1975); Bundy, G. L., Tetr.Lett, 1957 (1975); Malmsten, C., Life Sci, 18, 169 (1976) and Smith, J. B., et al, in Platelets and Thrombosis, Ed. by Mills, D.C.B. et al, Academic Press, London/N.Y. 1977, pp 83-95. The effect of thromboxane analogues on the release of cathepsin D from the cat liver large granule fraction was determined as described in Lefer, A. M. et al, Science 200, 52 (1978). The effect of thromboxane analogues on the release of cathepsin D from the cat liver large granule fraction was determined as described in Lefer, A. M. et al, Science 200, 52 (1978).
# Thromboxane Synthetase [5] = experiment: Thromboxane synthetase inhibition (Table 1); format: biochemical; settings: read-out: Inhibits Thromboxane Synthetase, ID50
# Description: as §2
# cat liver lysosomes = experiment: Release of cathepsin D from cat liver large granule fraction (lysosome stabilization); format: cell-based; settings: 1 μM
# Description: as §3, with “These compounds and their effects are described in the following references: Corey et al, PNAS, U.S.A. 72, 3355 (1975); Bundy, G. L., Tetr.Lett, 1957 (1975); Malmsten, C., Life Sci, 18, 169 (1976) and Smith, J. B., et al, in Platelets and Thrombosis, Ed. by Mills, D.C.B. et al, Academic Press, London/N.Y. 1977, pp 83-95.” left out, “(1978).” for “(1978). The effect of thromboxane analogues on the release of cathepsin D from the cat liver large granule fraction was determined as described in Lefer, A. M. et al, Science 200, 52 (1978).”
# blood platelets = settings: cited from earlier work; for effect on platelet aggregation: Gorman et al, Fitzpatrick et al
# [6] = test system: smooth muscle, blood vessels; settings: cited from earlier work
# [7] = cited from earlier work
smiles,measurement,setting,value
"CCCCCC(O)C=CC1CC2CC(C1CC=CCCCC(=O)O)C2(C)C (single isomer, unassigned) [16R epimer of the analogue III (R^1 =R^2 =--OH), Pinane Thromboxane A2, free acid]","effectiveness as a prostaglandin endoperoxide antagonist, relative to the 16S epimer",human platelets [1]; compared with 16S epimer,approximately ten times less effective
"CCCCCC(O)C=CC1CC2CC(C1CC=CCCCC(=O)O)C2(C)C (single isomer, unassigned) [III (R^1 =R^2 =OH, 16S), Pinane Thromboxane A2, free acid]",effect on the inhibition of aggregation by prostaglandin D2,human platelets [2]; 10 μM,nor did it affect
same,effect on the Inhibition of Platelet Aggregation by Prostacyclin,human platelets [2]; Table 1,no effect
same,effect on the Inhibition of Platelet Aggregation by Prostaglandin D2,human platelets [2]; Table 1,no effect
same,inhibition at 10 µM,"thromboxane synthetase [3]; 10 μM, read-out: inhibition of thromboxane B2 formation from 1-14C-arachidonic acid",23%
same,inhibition at 100 µM,"thromboxane synthetase [3]; 100 μM, read-out: inhibition of thromboxane B2 formation from 1-14C-arachidonic acid",83%
same,"radioactive prostaglandins E2, D2 and F2 α",thromboxane synthetase [3]; with thromboxane B2 inhibition,corresponding increases
same,platelet aggregation induced by arachidonic acid,human platelets [1]; 10 μM,abolished
same,platelet aggregation induced by collagen,human platelets [1]; 10 μM,partially inhibited
same,primary aggregation induced by ADP,human platelets [1]; 10 μM,did not inhibit
same,primary aggregation induced by epinephrine,human platelets [1]; 10 μM,did not inhibit
same,second wave of aggregation induced by ADP,human platelets [1]; 10 μM,abolished
same,second wave of aggregation induced by epinephrine,human platelets [1]; 10 μM,abolished
same,arachidonic acid-induced aggregation in human platelet-rich plasma,human platelets [1]; 50 μM,abolished
same,"aggregation induced by 9,11-azo-PGH2","human platelets [1]; 1-15 μM, dose-dependent",inhibited
same,"aggregation induced by 9,11-epoxymethano-PGH2","human platelets [1]; 1-15 μM, dose-dependent",inhibited
same,"aggregation induced by 9,11-methanoepoxy-PGH2","human platelets [1]; 1-15 μM, dose-dependent",inhibited
same,IC50,"human platelets [1]; Homo sapiens, Platelet, Table 1, read-out: Inhibits Aggregation by Prostaglandin Endoperoxide Analogues, ID50",2 µM
same,effect on cyclooxygenase,cyclooxygenase,not on cyclooxygenase
same,effect on Prostacyclin Synthetase,Prostacyclin Synthetase,no effect
same,reduction of thromboxane B2 formation in human platelet-rich plasma,thromboxane synthetase [4],50%
same,IC50,"cat coronary arteries; Felis catus, Table 1, read-out: Inhibits Coronary Artery Contraction by Prostaglandin Endoperoxide Analogues, ID50",0.1 µM
same,inhibition at 0.1 µM,"cat coronary arteries; Felis catus, read-out: reduction of constriction induced by 15 nM 9,11-azo-PGH2",73%
same,inhibition at 0.1 µM,"cat coronary arteries; Felis catus, read-out: reduction of constriction induced by 30 nM 9,11-azo-PGH2",50%
same,"constriction induced by 30 nM 9,11-azo-PGH2",cat coronary arteries; analogue 1 μm,abolished
same,IC50,Thromboxane Synthetase [5],50 µM
same,inhibition of the release of cathepsin D from cat liver lysosomes,cat liver lysosomes; 4 experiments,significant inhibition (p<0.005)
same,Stabilizes Lysosomes,cat liver lysosomes; Table 1,Stabilizes Lysosomes
"CCCCCC(O)C=CC1C2CC(N=N2)C1CC=CCCCC(=O)O (stereo not shown) [9,11-azo-PGH2, 9, 11-azo prostaglandin endoperoxide, reference compound]",effect on platelet aggregation,blood platelets,has aggregating activity
same,"Mean constriction at 15 nM 9,11-azo-PGH2","cat coronary arteries; 15 nM, three experiments",32 mm Hg
same,"Mean constriction at 30 nM 9,11-azo-PGH2","cat coronary arteries; 30 nM, three experiments",53 mm Hg
"CCCCCCC=CC1C2CC(N=N2)C1CC=CCCCC(=O)O (stereo not shown) [15-deoxy-9,11-azo-PGH2]",effect on platelet aggregation,blood platelets,inhibits platelet aggregation
"CCCCCC/C=C/C1C2CC(ON2)C1C/C=C\CCCC(=O)O (stereo not shown) [15-deoxy-9,11-epoxyimino-PGH2]",effect on platelet aggregation,blood platelets,inhibits platelet aggregation
"CCCCCC(O)C=CC1C(O)CC2OC(=CCCCC(=O)O)CC21 (stereo not drawn) [Prostacyclin, 6,9α-oxido-11α, 15α-dihydroxyprosta (Z) 5, E(13)-dienoic acid]",dilation of blood vessels,[6],powerful action as a dilator of blood vessels
same,half-life under physiological conditions,[7]; pH 7.4,about 2 minutes
same,effect on platelet aggregates after they have formed,blood platelets,destroys platelet aggregates after they have formed
same,inhibition of blood platelet aggregation,blood platelets; compared with all prostaglandins discovered to date,most potent inhibitor of blood platelet aggregation
"CCCCC[C@H](O)/C=C/[C@H]1O[C@H]2C[C@H](O2)[C@@H]1C/C=C\CCCC(=O)O [TA2, thromboxane A2]",smooth muscle constricting properties,[6],smooth muscle constricting
same,half-life under physiological conditions,[7]; pH 7.4 and 37° C.,30 seconds
same,thrombotic properties,blood platelets,potent thrombotic
